Reference: US11236055B2 (Venenum Biodesign, LLC, priority 2016, dated 2022)

Columns and labels:
mouse TGR5 receptor = biological target: T1, mouse TGR5 receptor (Mus musculus, UniProt Q80SS6); experiment: Mouse TGR5 cAMP production assay (HTRF, Cisbio cAMP HiRange); type: cell-based; settings: HEK293-EBNA cells overexpressing mouse TGR5, HTRF cAMP HiRange; coded A-D
T1 construct: expressed in transfected cells; host or cells: HEK293-EBNA (293 c18, ATCC CRL10852), Hygromycin B selection
T1 sequence (Q80SS6 1-329): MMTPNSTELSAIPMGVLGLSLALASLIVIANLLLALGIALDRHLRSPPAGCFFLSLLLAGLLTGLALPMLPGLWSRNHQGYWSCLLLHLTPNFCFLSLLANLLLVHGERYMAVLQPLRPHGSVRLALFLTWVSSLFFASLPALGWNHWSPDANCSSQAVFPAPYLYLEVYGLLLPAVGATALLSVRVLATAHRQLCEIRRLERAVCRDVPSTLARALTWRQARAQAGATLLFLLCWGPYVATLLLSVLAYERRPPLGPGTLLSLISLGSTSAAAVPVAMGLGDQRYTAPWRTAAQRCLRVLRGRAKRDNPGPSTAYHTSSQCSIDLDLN
Text: Mouse TGR5 cAMP Production Assay
We evaluated compounds of the present invention for their ability to induce cAMP production in HEK-EBNA cells overexpressing the mouse TGR5 receptor. Human embryonic kidney cells (HEK293-EBNA) stably expressing mouse TGR5 receptor were established using the following procedure. Specifically, a commercially-obtained gene encoding mouse TGR5 (accession number BC116914) from Thermo Scientific (Waltham, Mass.) was cloned into an episomal expression vector. The resulting expression plasmid was then transfected into 293 c18 (ATCC® CRL10852™) cells, which express the Epstein-Barr virus nuclear antigen EBNA1 and can support the replication of episomal vectors. Selection for the plasmid was maintained with Hygromycin B. Cells were cultured and maintained in DMEM (Sigma; cat #6429) supplemented with 10% Fetal Bovine Serum, 1% penicillin/streptomycin, 2 mM L-alanine L-glutamine (GlutaMax), and 250 μg/mL Hygromycin.
2. HTRF cAMP Production Assay
In this second cAMP production assay, the cAMP production was measured in 384-well low volume plates (Greiner; cat #784075) using the Cisbio™ cAMP HiRange HTRF Assay Kit (Cisbio) according to the manufacturer's protocol.
Briefly, compounds were initially diluted in 100% DMSO (12-point serial dilution by half logs) in a 96-well plate and then were further diluted 1:50 in PBS containing 10 mM HEPES. 5 μL were transferred to the 384-well assay plate in duplicate. HEK293-EBNA cells stably overexpressing mouse TGR5 were harvested using non-enzymatic cell dissociation buffer (Sigma), spun down, then resuspended in serum-free DMEM with 500 μM IBMX at a density of 500,000 cells/mL. 5 μL of cell suspension was transferred to each well of the 384-well assay plate already containing compound. The plate was covered and incubated at room temperature for 1 hour. The d2-cAMP and anti-cAMP Ab-cryptate stock solutions were prepared as per kit instructions. Then 5 μL of each conjugate (d2 and cryptate) were added to each well of the assay plate. The plate was covered and incubated at room temperature for 1 hour. The plate was read on an Envision™ plate reader (Perkin Elmer).
(§1) In Table 33, EC50 values for both human and mouse cells were determined according to the TGR5 cAMP assays described above.

human TGR5 receptor = biological target: T2, human TGR5 receptor (Homo sapiens, UniProt Q8TDU6); experiment: Human TGR5 cAMP production assay; type: cell-based; settings: human TGR5, luminescent cAMP assay; coded A-D; read-out: Human TGR5 Lum. cAMP Activity (EC50)
T2 construct: host or cells: CHO-K1 (hTGR5-CHO cells)
T2 sequence (Q8TDU6 1-330): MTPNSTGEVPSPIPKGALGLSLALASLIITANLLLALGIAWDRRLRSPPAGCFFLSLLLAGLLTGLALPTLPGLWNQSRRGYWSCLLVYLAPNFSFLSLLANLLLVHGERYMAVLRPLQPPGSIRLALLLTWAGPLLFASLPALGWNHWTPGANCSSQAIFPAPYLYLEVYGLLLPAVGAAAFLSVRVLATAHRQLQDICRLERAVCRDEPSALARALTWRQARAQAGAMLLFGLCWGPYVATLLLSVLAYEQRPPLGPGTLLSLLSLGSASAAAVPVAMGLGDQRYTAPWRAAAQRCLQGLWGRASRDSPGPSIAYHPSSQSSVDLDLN
Description: Human TGR5 cAMP Production Assay
We evaluated the Compounds of the present invention for their ability to induce cAMP production using CHO-K1 cells overexpressing the human TGR5 receptor. CHO-K1 cells stably expressing human TGR5 receptor (accession number NM_001077194.1 (hTGR5) (i.e., hTGR5-CHO cells) were purchased from DiscoveRx Corporation (Fremont, Calif.). hTGR5-CHO cells were grown in Ham's F-12 media supplemented with 10% Fetal Bovine Serum, 1% Penicillin-Streptomycin, 2 mM L-Alanine L-Glutamine (Glutamax), and 800 μg/mL Geneticin selection. The cAMP production assay was performed using DiscoveRx's cAMP XS+ kit (Catalog No. 90-0075XL) following the manufacturer's recommended protocol. Briefly, hTGR5-CHO cells were harvested using non-enzymatic cell dissociation buffer (Sigma-Aldrich, St. Louis, Mo.) and 1×10^6 cells were combined in Phosphate-Buffered Saline (PBS) to a final volume of 496 μL to which 4 μL of 125 mM IBMX (Sigma-Aldrich, St. Louis, Mo.) was added. 500 μL of cAMP antibody solution was added to the harvested cells and incubated at room temperature for 20 min.
Test compounds were serially diluted (half-log dilutions) in DMSO and then further diluted 1:50 in PBS, 10 mM HEPES buffer. 2 μL of serially diluted compound was added to a 384-well low volume plate (Greiner; cat #784075) and centrifuged briefly. 2 μL of the cell/cAMP antibody mixture was then added to each compound-containing well and allowed to incubate at room temperature for one hour. Following incubation, the XS+ kits' ED/Lysis/CL Substrate Working Solution was prepared following the manufacturer's recommended protocol and 4 μL was added to each well of the plate. The plate was then incubated for one hour at room temperature. Following incubation, 4 μL of Enzyme Acceptor reagent was added to the plate and allowed to incubate overnight at room temperature. Luminescent signal was then detected using the Viewlux instrument (Perkin-Elmer, Waltham, Mass.).
as §1

| Structure (SMILES) | EC50 (mouse TGR5 receptor) [nM] | EC50 (human TGR5 receptor) [nM] |
| --- | --- | --- |
| Cc1cnccc1-c1cccc(C(C)(C)N(CCCNS(=O)(=O)CCNC(=O)NCCCS(=O)(=O)O)S(=O)(=O)c2cccc(Cl)c2C)c1 [Compound 28AE, 3-(3-(2-(N-(3-((3-chloro-2-methyl-N-(2-(3-(3-methylpyridin-4-yl)phenyl)-propan-2-yl)phenyl)sulfonamido)-propyl)sulfamoyl)ethyl)ureido)propane-1-sulfonic acid] | 100 to 999 | < 100 |
| CC(C)(NS(=O)(=O)c1ccccc1C(F)(F)F)c1cccc(-c2ccc3nccn3c2)c1 [Compound 5AJ, N-(2-(3-(imidazo[1,2-a]pyridin-6-yl)phenyl)propan-2-yl)-2-(trifluoromethyl)benzenesulfonamide] | 1000 to 30000 | 100 to 999 |
| Cc1cnccc1-c1cccc([C@H](C)N(CCCC(=O)NCCS(=O)(=O)NCCC(=O)O)S(=O)(=O)c2ccccc2C(F)(F)F)c1 [Compound 20BI] | < 100 | < 100 |
| CC[C@H](NS(=O)(=O)c1cccc(C(F)(F)F)c1)c1cccc(-c2ccncc2C)c1 [Compound 5AY, (S)-N-(1-(3-(3-methylpyridin-4-yl)phenyl)propyl)-3-(trifluoromethyl)benzenesulfonamide] | 100 to 999 | < 100 |
| Cc1cnccc1-c1cccc([C@@H](C)N(CCCC(=O)NCCS(=O)(=O)O)S(=O)(=O)c2cccc(Cl)c2C)c1 [Compound 21AP, (R)-2-(4-(3-Chloro-2-methyl-N-(1-(3-(3-methylpyridin-4-yl)phenyl)ethyl)phenylsulfonamido)butanamido)ethane-sulfonic acid] | 1000 to 30000 | < 100 |
| CCc1cnccc1-c1cccc(C2CN(C(=O)CCC(=O)NCCCS(=O)(=O)O)CCN2S(=O)(=O)c2cccc(Cl)c2C)c1 (stereo not shown) [Compound 53AC, 3-(4-(4-((3-chloro-2-methylphenyl)sulfonyl)-3-(3-(3-ethylpyridin-4-yl)phenyl)piperazin-1-yl)-4-oxobutanamido)propane-1-sulfonic acid] | < 100 | 100 to 999 |
| Cc1c(Cl)cccc1S(=O)(=O)N(CCCC(=O)O)C(C)(C)c1cccc(-c2ccncc2CO)c1 [Compound 16AC, 4-(3-chloro-N-(2-(3-(3-(hydroxymethyl)pyridin-4-yl)-phenyl)propan-2-yl)-2-methylphenylsulfonamido)butanoic acid] | 100 to 999 | < 100 |
| COc1cnccc1-c1cccc(C(NS(=O)(=O)c2ccccc2C(F)(F)F)c2ccccc2)c1 (stereo not shown) [Compound 1CC] | 100 to 999 | 100 to 999 |
| Cc1cnccc1-c1cccc([C@H](C)N(CCCC(=O)NCCNC(=O)CS(=O)(=O)O)S(=O)(=O)c2ccccc2C(F)(F)F)c1 [Compound 31AE, (S)-2-((2-(4-(N-(1-(3-(3-methylpyridin-4-yl)phenyl)ethyl)-2-(trifluoromethyl)phenylsulfonamido)butanamido)ethyl)amino)-2-oxoethanesulfonic acid] | 100 to 999 | < 100 |
| Cc1cnccc1-c1cccc([C@@H](C)NS(=O)(=O)c2ccccc2C(F)(F)F)c1 [Compound 5AT, (R)-N-(1-(3-(3-methylpyridin-4-yl)phenyl)ethyl)-2-(trifluoromethyl)benzenesulfonamide] | 100 to 999 | < 100 |
| CCc1cnccc1-c1cccc([C@H](C)N(CCCC(=O)O)S(=O)(=O)c2ccccc2C(F)(F)F)c1 [Compound 15AB, (S)-4-(N-(1-(3-(3-ethylpyridin-4-yl)phenyl)ethyl)-2-(trifluoromethyl)phenylsulfonamido)butanoic acid] | < 100 | < 100 |
| Cc1cnccc1-c1cccc(C2CNCCN2S(=O)(=O)c2ccccc2C(F)(F)F)c1 (racemic) [Compound 44, (+/−) 2-(3-(3-methylpyridin-4-yl)phenyl)-1-((2-(trifluoromethyl)phenyl)sulfonyl)piperazine] | 100 to 999 | 100 to 999 |
| CCc1cnccc1-c1cccc(C2CN(C(=O)CP(=O)(O)O)CCN2S(=O)(=O)c2cccc(Cl)c2C)c1 (stereo not shown) [Compound 50] | < 100 | 100 to 999 |
| Cc1cnccc1-c1cccc([C@H](CC(=O)O)NS(=O)(=O)c2ccccc2C(F)(F)F)c1 [Compound 18, (S)-3-(3-(3-methylpyridin-4-yl)phenyl)-3-(2-(trifluoromethyl)phenylsulfonamido)propanoic acid] | 100 to 999 | 1000 to 30000 |
| CC(=O)N(CCCCN([C@@H](C)c1cccc(-c2ccncc2C)c1)S(=O)(=O)c1cccc(Cl)c1C)CCC(=O)O [Compound 34, (S)-3-(N-(4-(3-chloro-2-methyl-N-(1-(3-(3-methylpyridin-4-yl)phenyl)ethyl)phenylsulfonamido)butyl)acetamido)propanoic acid] | 100 to 999 | 100 to 999 |
| Cc1cnccc1-c1cccc(C(C)N(CCCNc2c(NCCC(=O)O)c(=O)c2=O)S(=O)(=O)c2cccc(Cl)c2C)c1 (stereo not shown) [Compound 32AB] | 100 to 999 | 100 to 999 |
| Cc1cnccc1-c1cccc([C@H](CCCC#N)N(CCCC(=O)O)S(=O)(=O)c2cccc(Cl)c2C)c1 [Compound 15AD, (S)-4-(3-chloro-N-(4-cyano-1-(3-(3-methylpyridin-4-yl)phenyl)butyl)-2-methylphenylsulfonamido) butanoic acid] | 100 to 999 | 100 to 999 |
| Cc1cnccc1-c1cccc([C@H](C)N(CCCC(=O)NCCS(=O)(=O)O)S(=O)(=O)c2ccccc2C(F)(F)F)c1 | 100 to 999 | < 100 |
| Cc1c(Cl)cccc1S(=O)(=O)N1CCN(C(=O)CS(=O)(=O)O)CC1c1cccc(-c2ccncc2Cl)c1 (stereo not shown) [Compound 49AE, 2-(4-((3-chloro-2-methylphenyl)sulfonyl)-3-(3-(3-chloropyridin-4-yl)phenyl)piperazin-1-yl)-2-oxoethanesulfonic acid] | < 100 | 100 to 999 |
| COc1cnccc1-c1ccnc(CNS(=O)(=O)c2ccccc2C(F)(F)F)c1 [Compound 1BT] | 1000 to 30000 | 1000 to 30000 |
